Test results published in article PMC3914206.

Legend:
panel of 442 kinases [1] = target: T1, panel of 442 kinases (Homo sapiens, UniProt P08631); assay type: binding; conditions: Compound Concentration 10 µM
T1 construct: purchased KINOMEscan
From the text: (§1) We assessed the selectivity of members of this scaffold using the KINOMEscan methodology across a near comprehensive panel of 442 kinases [[18,27]].

panel of 442 kinases [2] = target: T2, panel of 442 kinases (Homo sapiens, UniProt Q8WXR4); assay type: binding; conditions: Compound Concentration 10 µM
T2 construct: purchased KINOMEscan
T2 sequence (Q8WXR4 1-1341): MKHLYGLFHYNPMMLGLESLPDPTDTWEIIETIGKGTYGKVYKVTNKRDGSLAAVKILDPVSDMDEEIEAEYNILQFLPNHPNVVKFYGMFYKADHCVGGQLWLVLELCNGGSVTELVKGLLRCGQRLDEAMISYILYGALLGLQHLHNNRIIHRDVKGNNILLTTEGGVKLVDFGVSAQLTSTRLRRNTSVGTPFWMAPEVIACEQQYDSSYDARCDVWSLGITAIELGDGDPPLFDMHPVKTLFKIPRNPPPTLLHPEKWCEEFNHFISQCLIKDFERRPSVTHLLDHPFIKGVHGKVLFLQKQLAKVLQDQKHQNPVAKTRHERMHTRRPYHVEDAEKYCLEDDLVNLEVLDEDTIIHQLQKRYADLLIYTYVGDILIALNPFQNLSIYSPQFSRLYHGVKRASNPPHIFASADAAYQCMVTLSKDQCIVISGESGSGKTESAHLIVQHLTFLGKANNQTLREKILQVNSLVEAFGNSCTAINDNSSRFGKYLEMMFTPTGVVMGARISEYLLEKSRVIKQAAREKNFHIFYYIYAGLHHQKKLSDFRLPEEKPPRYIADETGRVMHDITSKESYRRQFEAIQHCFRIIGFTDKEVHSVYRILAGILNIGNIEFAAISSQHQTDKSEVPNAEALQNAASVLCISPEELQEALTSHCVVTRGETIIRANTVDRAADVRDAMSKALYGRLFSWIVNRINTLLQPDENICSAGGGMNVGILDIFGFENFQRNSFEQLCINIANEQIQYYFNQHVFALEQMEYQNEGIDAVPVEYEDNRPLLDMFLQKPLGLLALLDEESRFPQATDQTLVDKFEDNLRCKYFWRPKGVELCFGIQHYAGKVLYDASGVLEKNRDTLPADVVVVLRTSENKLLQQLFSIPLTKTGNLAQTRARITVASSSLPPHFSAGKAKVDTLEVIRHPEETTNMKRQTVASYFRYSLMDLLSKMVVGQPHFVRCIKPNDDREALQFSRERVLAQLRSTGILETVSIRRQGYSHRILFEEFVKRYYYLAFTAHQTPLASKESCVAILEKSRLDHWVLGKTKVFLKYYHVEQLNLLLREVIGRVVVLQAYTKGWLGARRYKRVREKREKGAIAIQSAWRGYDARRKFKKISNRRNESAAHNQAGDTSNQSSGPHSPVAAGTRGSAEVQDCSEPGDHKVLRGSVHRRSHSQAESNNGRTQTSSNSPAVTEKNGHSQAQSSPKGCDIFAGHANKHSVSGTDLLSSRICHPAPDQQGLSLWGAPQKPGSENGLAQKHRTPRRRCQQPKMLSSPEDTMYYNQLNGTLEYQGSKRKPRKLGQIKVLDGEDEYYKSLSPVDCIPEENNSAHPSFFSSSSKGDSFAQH
From the text: as §1

T1 sequence (P08631 whole entry): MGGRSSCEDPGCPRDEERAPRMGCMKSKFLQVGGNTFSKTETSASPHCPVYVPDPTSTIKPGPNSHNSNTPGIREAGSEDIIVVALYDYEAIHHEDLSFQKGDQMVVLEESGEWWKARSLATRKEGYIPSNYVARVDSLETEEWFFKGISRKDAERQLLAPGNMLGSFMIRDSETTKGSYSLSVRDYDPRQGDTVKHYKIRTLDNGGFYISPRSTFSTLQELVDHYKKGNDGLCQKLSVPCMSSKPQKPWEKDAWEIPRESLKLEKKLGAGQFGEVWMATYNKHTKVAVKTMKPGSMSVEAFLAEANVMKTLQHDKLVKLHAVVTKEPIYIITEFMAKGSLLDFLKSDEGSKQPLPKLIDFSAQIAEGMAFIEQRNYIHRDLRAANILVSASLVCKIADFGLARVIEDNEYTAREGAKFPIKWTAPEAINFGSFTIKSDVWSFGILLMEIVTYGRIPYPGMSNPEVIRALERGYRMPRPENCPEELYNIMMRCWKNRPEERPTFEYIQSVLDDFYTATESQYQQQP

Compound	KINOMEscan: HCK (panel of 442 kinases [1])	KINOMEscan: MYO3B (panel of 442 kinases [2])
COc1cc(C(=O)N2CCC(N3CCN(C)CC3)CC2)ccc1Nc1ncc2c(n1)N(C1CCCC1)c1ccccc1C(=O)N2C [Compound 25, 11-cyclopentyl-2-((2-methoxy-4-(4-(4-methylpiperazin-1-yl)piperidine-1-carbonyl)phenyl)amino)-5-methyl-5H-benzo[e]pyrimido[5,4-b][1,4]diazepin-6(11H)-one]	97	100
COc1cc(C(=O)N2CCC(N3CCN(C)CC3)CC2)ccc1Nc1ncc2c(n1)N1CCc3cccc(c31)C(=O)N2C [Compound 24]		76
COc1cc(C(=O)N2CCC(N3CCN(C)CC3)CC2)ccc1Nc1ncc2c(n1)N(C)c1ccccc1C(=O)N2C [15 (LRRK2-IN-1)]	100	83
CCOc1cc(C(=O)N2CCC(N3CCN(C)CC3)CC2)ccc1Nc1ncc2c(n1)N(C1CCCC1)c1ccccc1C(=O)N2C [Compound 26]	100	100
